In patent publication US4719297A, “Acylphosphine compounds and their use as photoinitiators” (priority 1981, dated 1988):

assay: Minimum exposure time for faultless reproduction of the 3% tonality on photopolymerizable printing plate (Table 7); conditions: 2 parts photoinitiator; UV about 3,300 μW/cm^2
Protocol: 60 parts by weight of a 1:1:1 copolyamide consisting of PA-6, PA-6.6 and PA-6.13, 30 parts by weight of ethylene glycol bis-(N-methylolacrylamide) ether, 10 parts by weight of benzenesulfonic acid N-(n-butyl)-amide, 150 parts by weight of methanol, 20 parts by weight of water, 0.02 part by weight of a chromium complex dye (CI No. 12,195), 0.3 part by weight of potassium N-nitrosocyclohexylhydroxylamine and 2 parts by weight of the photoinitiator given in Table 7 were dissolved at about 70° C. The photopolymerizable material was brought to a solids content of about 65% by distilling off part of the solvent and was then cast, at 60° C., on to a strip of steel sheet provided with an adhesive, and drying was effected in a drying oven for about 2 hours at 80° C. The resulting photopolymerizable printing plate contained a 0.5 mm thick layer with a solids content of about 95%.
Using a test negative which had, inter alia, 54 screen lines, per centimeter, of 3% tonality, the plate was exposed to a UV light intensity of about 3,300 μW/cm^2 on a flat-plate exposure unit equipped with superactinic fluorescent tubes. The unexposed parts of the plate which were protected from the UV light by the opaque image elements of the negative were then washed out in a spray washer for 5 minutes at 30° C. and under a spray pressure of 5 bar, using an ethanol/water mixture containing 80% of ethanol. The plate was thereafter dried for 6 minutes at 110° C. The minimum exposure time required for faultless reproduction of the 3% tonality was measured, and the results for various photoinitiators are summarized in Table 7.

| Compound | Minimum exposure time required for reproducing the 3% tonality [s] |
| --- | --- |
| Cc1cc(C)c(C(=O)P(=O)(O)c2ccccc2)c(C)c1 [Compound 14] | 110 |
| COC(OC)(C(=O)c1ccccc1)c1ccccc1 [III, benzil dimethyl ketal, reference compound] | 165 |

assay: Shelf life of UP resin C containing a photoinitiator, stored at 60° C. (Table 3); format: physicochemical; conditions: 0.2% initiator, dark
Protocol: (§1) To test the shelf life, 6.6 ml of each of the UP resins A, B and C (cf. Example 5) with an initiator content of 0.2% were introduced into brown sample bottles, and the closed bottles were stored at 60° C. At intervals of about 12 hours, the bottles were turned to determine whether gel particles had formed. As a measure of the shelf life, Table 3 gives the maximum storage time at which gel particles were still not observed.
(§2) In addition to the comparative compounds I, II and III, compound V below was also tested: V 2,4,6-trimethylbenzoyldiphenylphosphine oxide as described in U.S. Pat. No. 4,265,723.
(§3) The numbering scheme of the compounds in Table 3 is based on that of Table 1.

| Compound | Shelf life [h] |
| --- | --- |
| Cc1cc(C)c(C(=O)P(=O)(O)c2ccccc2)c(C)c1 [Compound 9] | 180 |
| Cc1cc(C)c(C(=O)P(=O)(O)c2ccccc2)c(C)c1 [Compound 11] | 204 |
| Cc1cc(C)c(C(=O)P(=O)(O)c2ccccc2)c(C)c1 [Compound 14] | 204 |
| Cc1cc(C)c(C(=O)P(=O)(OC(C)C)c2ccccc2)c(C)c1 (stereo not drawn) [II, isopropyl 2,4,6-trimethylbenzoylphenylphosphinate, reference compound] | 120 |

assay: Shelf life of resins containing the compounds, overall comparison; format: physicochemical; conditions: Table 3, in words
Protocol: as §1, §2

| Compound | shelf life of resins compared with compounds II, III and V | shelf life of resins compared with resins containing I |
| --- | --- | --- |
| Cc1cc(C)c(C(=O)P(=O)(O)c2ccccc2)c(C)c1 [Compound 9] | substantially superior | not significantly different |
| Cc1cc(C)c(C(=O)P(=O)(O)c2ccccc2)c(C)c1 [Compound 11] | substantially superior | not significantly different |
| Cc1cc(C)c(C(=O)P(=O)(O)c2ccccc2)c(C)c1 [Compound 14] | substantially superior | not significantly different |
| Cc1cc(C)c(C(=O)P(=O)(O)c2ccccc2)c(C)c1 [Compound 17] | substantially superior |  |
| Cc1cc(C)c(C(=O)P(=O)(O)c2ccccc2)c(C)c1 [Compound 18] | substantially superior |  |

assay: Shelf life of UP resin B containing a photoinitiator, stored at 60° C. (Table 3); format: physicochemical; conditions: 0.2% initiator, dark
Protocol: as §1, §2, §3

| Compound | Shelf life [h] |
| --- | --- |
| Cc1cc(C)c(C(=O)P(=O)(O)c2ccccc2)c(C)c1 [Compound 9] | 140 |
| Cc1cc(C)c(C(=O)P(=O)(O)c2ccccc2)c(C)c1 [Compound 11] | 155 |
| Cc1cc(C)c(C(=O)P(=O)(O)c2ccccc2)c(C)c1 [Compound 14] | 155 |
| Cc1cc(C)c(C(=O)P(=O)(OC(C)C)c2ccccc2)c(C)c1 (stereo not drawn) [II, isopropyl 2,4,6-trimethylbenzoylphenylphosphinate, reference compound] | 155 |

assay: Photopolymerization of monomer emulsion, properties of resulting polymer dispersions (Table 5); conditions: 0.04 parts X employed
Protocol: A monomer emulsion was prepared from 50 parts of methyl acrylate, 50 parts of ethyl acrylate, 1.3 parts of a 40% strength C15 -paraffin sulfonate, 1.3 parts of an adduct of isooctylphenol with 25 units of ethylene oxide (20% strength) and 210 parts of water in a conventional mixing unit.
This emulsion was introduced into a 1 l glass flask provided with an internal thermometer and a stirrer, and was freed from oxygen by twice evacuating the flask and gassing the emulsion with nitrogen. X parts of the photoinitiator in 6.7 parts of water were added, and the reaction vessel was then exposed for 60 minutes to light from a high pressure mercury vapor lamp of Type HQL/R 400 W from Osram, located 30 cm above the vessel. The beginning of polymerization was evident from an increase in the temperature. The amounts of photoinitiator employed and the properties of the resulting polymer dispersions are summerized in Table 5, photoinitiator 4 (cf. Table 1) being compared with photoinitiator VI (described in U.S. Pat. No. 4.257,859).

| Compound | polymerization outcome |
| --- | --- |
| C[N+]1(CC(O)(C(=O)c2ccccc2)c2ccccc2)CCCC1 (stereo not drawn) [VI] | no polymerization |

same assay, conditions: 1.7 parts X employed; 60 min exposure

| Compound | Fikentscher K value | Residual monomers, ethyl acrylate [%] | Residual monomers, methyl acrylate [%] | Solids content [%] |
| --- | --- | --- | --- | --- |
| C[N+]1(CC(O)(C(=O)c2ccccc2)c2ccccc2)CCCC1 (stereo not drawn) [VI] | 146.1 | 0.012 | 0.036 | 30.8 |

same assay, conditions: very low starting concentrations, in words

| Compound | initiation of photopolymerization at very low starting concentrations |
| --- | --- |
| C[N+]1(CC(O)(C(=O)c2ccccc2)c2ccccc2)CCCC1 (stereo not drawn) [VI] | no longer initiates polymerization |

assay: Hardening activity of UP resin A under UV light, temperature/time curve (Table 2); conditions: 0.2% compound
Protocol: (§4) To measure the hardening activity, the temperature curve for the unsaturated polyester resin (UP resin) was recorded during exposure to UV light. […] To avoid heat losses during the exposure to UV light, the lid was embedded in rigid expanded polyurethane foam. The UV light source used comprised 5 fluorescent tubes (TLAK 40 W/05 from Philips) side by side, at a distance of 8.5 cm from the UP resin surface.
(§5) The hardening time HT25° C.-T.sbsb.max and the maximum hardening temperature Tmax achieved were obtained, as characteristic parameters for the hardening activity, from the recorded temperature/time curves. The hardening time is the interval in which the sample temperature increases from 25° C. to Tmax.
(§6) The Examples and Comparative Examples were carried out using the following unsaturated polyester resins:
Resin A was a 65% strength solution, in styrene, of an unsaturated polyester of maleic acid, o-phthalic acid, ethylene glycol and propylene 1,2-glycol in the molar ratio of 1:2:2.3:0.70, the solution being stabilized with 0.01% of hydroquinone.
(§7) The hardening activity of the novel compounds 1 to 16 (cf. Table 1) was compared with the properties of the following compounds: […]

| Compound | hardening time HT 25°-Tmax | maximum hardening temperature Tmax [°C] |
| --- | --- | --- |
| Cc1cc(C)c(C(=O)P(=O)(O)c2ccccc2)c(C)c1 [Compound 5] | 5/38 | 118 |
| Cc1cc(C)c(C(=O)P(=O)(O)c2ccccc2)c(C)c1 [Compound 6] | 5/53 | 115 |
| Cc1cc(C)c(C(=O)P(=O)(O)c2ccccc2)c(C)c1 [Compound 8, Calcium bis-(2,4,6-trimethylbenzoylphenylphosphinate)] | 5/53 | 114 |
| Cc1cc(C)c(C(=O)P(=O)(O)c2ccccc2)c(C)c1 [Compound 9] | 5/53 | 110 |
| Cc1cc(C)c(C(=O)P(=O)(O)c2ccccc2)c(C)c1 [Compound 11] | 5/23 | 118 |
| Cc1cc(C)c(C(=O)P(=O)(O)c2ccccc2)c(C)c1 [Compound 13] | 6/08 | 115 |
| Cc1cc(C)c(C(=O)P(=O)(O)c2ccccc2)c(C)c1 [Compound 14] | 5/30 | 122 |
| Cc1cc(C)c(C(=O)P(=O)(O)c2ccccc2)c(C)c1 [Compound 15] | 7/15 | 113 |
| Cc1cc(C)c(C(=O)P(=O)(O)c2ccccc2)c(C)c1 [Compound 16] | 5/15 | 115 |
| Cc1cc(C)c(C(=O)P(=O)(O)c2ccccc2)c(C)c1 [Compound 17] | 5/38 | 120 |
| Cc1cc(C)c(C(=O)P(=O)(OC(C)C)c2ccccc2)c(C)c1 (stereo not drawn) [II, isopropyl 2,4,6-trimethylbenzoylphenylphosphinate, reference compound] | 6/45 | 107 |
| COC(OC)(C(=O)c1ccccc1)c1ccccc1 [III, benzil dimethyl ketal, reference compound] | 8/00 | 114 |

assay: Shelf life of UP resin A containing a photoinitiator, stored at 60° C. (Table 3); format: physicochemical; conditions: 0.2% initiator, dark
Protocol: as §1, §2, §3

| Compound | Shelf life [h] |
| --- | --- |
| Cc1cc(C)c(C(=O)P(=O)(O)c2ccccc2)c(C)c1 [Compound 9] | 180 |
| Cc1cc(C)c(C(=O)P(=O)(O)c2ccccc2)c(C)c1 [Compound 11] | 180 |
| Cc1cc(C)c(C(=O)P(=O)(O)c2ccccc2)c(C)c1 [Compound 14] | 180 |
| Cc1cc(C)c(C(=O)P(=O)(O)c2ccccc2)c(C)c1 [Compound 17] | 270 |
| Cc1cc(C)c(C(=O)P(=O)(O)c2ccccc2)c(C)c1 [Compound 18] | 270 |
| Cc1cc(C)c(C(=O)P(=O)(OC(C)C)c2ccccc2)c(C)c1 (stereo not drawn) [II, isopropyl 2,4,6-trimethylbenzoylphenylphosphinate, reference compound] | 140 |

assay: Hardening activity of UP resin B under UV light, temperature/time curve (Table 2); conditions: 0.2% compound
Protocol: as §4, §5, §6
Resin B was a 67% strength solution, in styrene, of an unsaturated polyester of maleic acid, tetrahydrophthalic acid and diethylene glycol in the molar ratio of 1:0.5:1.5, the solution being stabilized with 0.01% of hydroquinone.
as §7

| Compound | hardening time HT 25°-Tmax | maximum hardening temperature Tmax [°C] |
| --- | --- | --- |
| Cc1cc(C)c(C(=O)P(=O)(O)c2ccccc2)c(C)c1 [Compound 8, Calcium bis-(2,4,6-trimethylbenzoylphenylphosphinate)] | 6/00 | 130 |
| Cc1cc(C)c(C(=O)P(=O)(O)c2ccccc2)c(C)c1 [Compound 9] | 4/45 | 125 |
| Cc1cc(C)c(C(=O)P(=O)(O)c2ccccc2)c(C)c1 [Compound 11] | 4/30 | 124 |
| Cc1cc(C)c(C(=O)P(=O)(O)c2ccccc2)c(C)c1 [Compound 13] | 5/30 | 126 |
| Cc1cc(C)c(C(=O)P(=O)(O)c2ccccc2)c(C)c1 [Compound 14] | 4/53 | 118 |
| Cc1cc(C)c(C(=O)P(=O)(O)c2ccccc2)c(C)c1 [Compound 15] | 8/00 | 119 |
| Cc1cc(C)c(C(=O)P(=O)(OC(C)C)c2ccccc2)c(C)c1 (stereo not drawn) [II, isopropyl 2,4,6-trimethylbenzoylphenylphosphinate, reference compound] | 5/15 | 128 |
| COC(OC)(C(=O)c1ccccc1)c1ccccc1 [III, benzil dimethyl ketal, reference compound] | 9/45 | 119 |

assay: Hardening activity of UP resin C under UV light, temperature/time curve (Table 2); conditions: 0.2% compound
Protocol: as §4, §5, §6
Resin C was a 66% strength solution, in styrene, of an unsaturated polyester of maleic acid, o-phthalic acid and propylene 1,2-glycol in the molar ratio of 1:0.5:1.5, the solution being stabilized with 0.01% of hydroquinone.
as §7

| Compound | hardening time HT 25°-Tmax | maximum hardening temperature Tmax [°C] |
| --- | --- | --- |
| Cc1cc(C)c(C(=O)P(=O)(O)c2ccccc2)c(C)c1 [Compound 9] | 5/45 | 129 |
| Cc1cc(C)c(C(=O)P(=O)(O)c2ccccc2)c(C)c1 [Compound 11] | 5/15 | 120 |
| Cc1cc(C)c(C(=O)P(=O)(O)c2ccccc2)c(C)c1 [Compound 13] | 5/23 | 121 |
| Cc1cc(C)c(C(=O)P(=O)(O)c2ccccc2)c(C)c1 [Compound 14] | 5/38 | 123 |
| Cc1cc(C)c(C(=O)P(=O)(O)c2ccccc2)c(C)c1 [Compound 15] | 7/30 | 109 |
| Cc1cc(C)c(C(=O)P(=O)(OC(C)C)c2ccccc2)c(C)c1 (stereo not drawn) [II, isopropyl 2,4,6-trimethylbenzoylphenylphosphinate, reference compound] | 6/08 | 120 |
| COC(OC)(C(=O)c1ccccc1)c1ccccc1 [III, benzil dimethyl ketal, reference compound] | 8/30 | 122 |
